From patent US20110319491A1, “ANHYDROUS DEPIGMENTING COMPOSITIONS COMPRISING, WITHIN THE FATTY PHASE THEREOF, A SOLUBILIZED PHENOLIC COMPOUND AND A RETINOID” (GALDERMA RESEARCH & DEVELOPMENT, priority 2009, published 2011)
Like-named read-outs stand apart in the source and are kept apart here. Blank lines part the entries; values can stand above or below the molecule they belong to.

Assays:
[1] = cited from earlier work
[2] = Chemical stability of the formulations (HPLC assay of the active agents); type: physicochemical; conditions: for Chemical stability: hydroquinone assay, % relative to the theoretical value: in composition of Example 2; for Chemical stability: rucinol assay, % relative to the theoretical value: in composition of Example 3
Protocol: The chemical stability is measured by assaying the active agents by external calibration in HPLC and the results are expressed as a % of […] relative to the theoretical value.

[3] = Stability of hydroquinone in solvent oils and lipophilic surfactants (HPLC assay, colour)
[4] = Rucinol solubilities in solvents (HPLC); type: physicochemical
[5] = Stability of rucinol in solvent oils and lipophilic surfactants (HPLC assay); type: physicochemical; conditions: T0 = 100%
From the text: Assay technique by HPLC against reference substance.
The initial time (T0) is considered as 100%.

[6] = in Caprylic capric triglycerides
[7] = in Cremophor EL, 1 month, 40° C.
[8] = in Cremophor EL, 3 months, 40° C.
[9] = in Crodamol DA, 1 month, 40° C.
[10] = in Crodamol DA, 3 months, 40° C.
[11] = in Ethanol/water (20/80), 1 month, 40° C.
[12] = in Ethanol/water (20/80), 1 month, RT
[13] = in Ethanol/water (20/80), 3 months, 40° C.
[14] = in Ethanol/water (20/80), 3 months, RT
[15] = in Propylene glycol, 1 month, 40° C.
[16] = in Propylene glycol, 1 month, RT
[17] = in Propylene glycol, 3 months, 40° C.
[18] = in Propylene glycol, 3 months, RT

Chemical stability: hydroquinone assay, % relative to the theoretical value ([2]; 40° C., T + 1 M): 97.6%
Chemical stability: hydroquinone assay, % relative to the theoretical value ([2]; 40° C., T + 2 M): 100.8%
Chemical stability: hydroquinone assay, % relative to the theoretical value ([2]; 40° C., T + 3 M): 99.2%
Chemical stability: hydroquinone assay, % relative to the theoretical value ([2]; 40° C., T + 6 M): 97.2%
Chemical stability: hydroquinone assay, % relative to the theoretical value ([2]; RT, T + 1 M): 98.9%
Chemical stability: hydroquinone assay, % relative to the theoretical value ([2]; RT, T + 2 M): 101.8%
Chemical stability: hydroquinone assay, % relative to the theoretical value ([2]; RT, T + 3 M): 98.8%
Chemical stability: hydroquinone assay, % relative to the theoretical value ([2]; RT, T + 6 M): 100.6%
Max. solubility (w/w) (in Arlamol E): 11.9 w/w
Max. solubility (w/w) [6]: 1.7 w/w
Max. solubility (w/w) (in Castor oil): 6.5 w/w
Max. solubility (w/w) (in Cremophor EL): 27.9 w/w
Solubility of hydroquinone (in words) (in Cremophor EL): high solubility
Max. solubility (w/w) (in Crodamol DA): 10.7 w/w
Max. solubility (w/w) (in Ethanol/water (20/80)): 17 w/w
Max. solubility (w/w) (in Glycerol): 15.6 w/w
Max. solubility (w/w) (in Labrasol): 28.9 w/w
Max. solubility (w/w) (in Lauroglycol): 5.5 w/w
Max. solubility (w/w) (in PEG 400): 19.8 w/w
Max. solubility (w/w) (in Propylene glycol): 15.6 w/w
% (HPLC assay, T0 = 100%) ([3]; in Arlamol E, 1 month, 40° C.): 95.5%
Colour ([3]; in Arlamol E, 1 month, 40° C.): Colourless
% (HPLC assay, T0 = 100%) ([3]; in Arlamol E, 1 month, RT): 95.9%
Colour ([3]; in Arlamol E, 1 month, RT): Colourless
% (HPLC assay, T0 = 100%) ([3]; in Arlamol E, 3 months, 40° C.): 96.0%
Colour ([3]; in Arlamol E, 3 months, 40° C.): Colourless
% (HPLC assay, T0 = 100%) ([3]; in Arlamol E, 3 months, RT): 95.9%
Colour ([3]; in Arlamol E, 3 months, RT): Colourless
% (HPLC assay, T0 = 100%) [3, 7]: 87.1%
Colour [3, 7]: Brown
% (HPLC assay, T0 = 100%) ([3]; in Cremophor EL, 1 month, RT): 91.4%
Colour ([3]; in Cremophor EL, 1 month, RT): Orange
% (HPLC assay, T0 = 100%) [3, 8]: 85.1%
Colour [3, 8]: Brown++
% (HPLC assay, T0 = 100%) ([3]; in Cremophor EL, 3 months, RT): 87%
Colour ([3]; in Cremophor EL, 3 months, RT): Brown+
Macroscopic stability of hydroquinone (in words) ([3]; in Cremophor EL, browning that becomes pronounced over time and with temperature): macroscopic instability
Chemical and physical stability of hydroquinone (in words) ([3]; in Crodamol DA, Arlamol E and Labrasol): good chemical and physical stability
% (HPLC assay, T0 = 100%) [3, 9]: 95.9%
Colour [3, 9]: Colourless
% (HPLC assay, T0 = 100%) ([3]; in Crodamol DA, 1 month, RT): 96.5%
Colour ([3]; in Crodamol DA, 1 month, RT): Colourless
% (HPLC assay, T0 = 100%) [3, 10]: 97.4%
Colour [3, 10]: Colourless
% (HPLC assay, T0 = 100%) ([3]; in Crodamol DA, 3 months, RT): 97.6%
Colour ([3]; in Crodamol DA, 3 months, RT): Colourless
% (HPLC assay, T0 = 100%) [3, 11]: 91.7%
Colour [3, 11]: Dark pink
% (HPLC assay, T0 = 100%) [3, 12]: 94.4%
Colour [3, 12]: Orange
% (HPLC assay, T0 = 100%) [3, 13]: 89.4%
Colour [3, 13]: Brown
% (HPLC assay, T0 = 100%) [3, 14]: 93.9%
Colour [3, 14]: Orange
% (HPLC assay, T0 = 100%) ([3]; in Glycerol, 1 month, 40° C.): 93.5%
Colour ([3]; in Glycerol, 1 month, 40° C.): Dark yellow
% (HPLC assay, T0 = 100%) ([3]; in Glycerol, 1 month, RT): 95.0%
Colour ([3]; in Glycerol, 1 month, RT): Yellow
% (HPLC assay, T0 = 100%) ([3]; in Glycerol, 3 months, 40° C.): 93.3%
Colour ([3]; in Glycerol, 3 months, 40° C.): Orange
% (HPLC assay, T0 = 100%) ([3]; in Glycerol, 3 months, RT): 93.0%
Colour ([3]; in Glycerol, 3 months, RT): Pink
% (HPLC assay, T0 = 100%) ([3]; in Labrasol, 1 month, 40° C.): 95.2%
Colour ([3]; in Labrasol, 1 month, 40° C.): Colourless
% (HPLC assay, T0 = 100%) ([3]; in Labrasol, 1 month, RT): 95.4%
Colour ([3]; in Labrasol, 1 month, RT): Colourless
% (HPLC assay, T0 = 100%) ([3]; in Labrasol, 3 months, 40° C.): 95.1%
Colour ([3]; in Labrasol, 3 months, 40° C.): Colourless
% (HPLC assay, T0 = 100%) ([3]; in Labrasol, 3 months, RT): 94.6%
Colour ([3]; in Labrasol, 3 months, RT): Colourless
% (HPLC assay, T0 = 100%) ([3]; in Miglyol, 1 month, 40° C.): 95%
Colour ([3]; in Miglyol, 1 month, 40° C.): Colourless
% (HPLC assay, T0 = 100%) ([3]; in Miglyol, 1 month, RT): 94.2%
Colour ([3]; in Miglyol, 1 month, RT): Colourless
% (HPLC assay, T0 = 100%) ([3]; in Miglyol, 3 months, 40° C.): 95%
Colour ([3]; in Miglyol, 3 months, 40° C.): Colourless
% (HPLC assay, T0 = 100%) ([3]; in Miglyol, 3 months, RT): 93.1%
Colour ([3]; in Miglyol, 3 months, RT): Colourless
% (HPLC assay, T0 = 100%) ([3]; in PEG 400, 1 month, 40° C.): 91.4%
Colour ([3]; in PEG 400, 1 month, 40° C.): Orange
% (HPLC assay, T0 = 100%) ([3]; in PEG 400, 1 month, RT): 93.4%
Colour ([3]; in PEG 400, 1 month, RT): Pink
% (HPLC assay, T0 = 100%) ([3]; in PEG 400, 3 months, 40° C.): 91.8%
Colour ([3]; in PEG 400, 3 months, 40° C.): Brown
% (HPLC assay, T0 = 100%) ([3]; in PEG 400, 3 months, RT): 89.0%
Colour ([3]; in PEG 400, 3 months, RT): Brown
% (HPLC assay, T0 = 100%) [3, 15]: 91.8%
Colour [3, 15]: Yellow
% (HPLC assay, T0 = 100%) [3, 16]: 97.0%
Colour [3, 16]: Colourless
% (HPLC assay, T0 = 100%) [3, 17]: 88.8%
Colour [3, 17]: Dark yellow
% (HPLC assay, T0 = 100%) [3, 18]: 94.2%
Colour [3, 18]: Yellow
Colour stability of hydroquinone (in words) ([3]; in solvents of the prior art such as glycols, RT and 40° C., absence of antioxidants): colouration is observed
Compound: Oc1ccc(O)cc1 [Hydroquinone, hydroquinone]
Incidence of irritation ([1]; 2% hydroquinone concentration): virtually nonexistent
Incidence of irritation ([1]; 10% hydroquinone concentration): relatively high
Incidence of irritation ([1]; preparations with a 5% dose of hydroquinone): reduces greatly

Chemical stability: rucinol assay, % relative to the theoretical value ([2]; 4° C., T + 1 M): 99.4%
Chemical stability: rucinol assay, % relative to the theoretical value ([2]; 4° C., T + 2 M): 97.4%
Chemical stability: rucinol assay, % relative to the theoretical value ([2]; 40° C., T + 1 M): 98.8%
Chemical stability: rucinol assay, % relative to the theoretical value ([2]; 40° C., T + 2 M): 97.8%
Chemical stability: rucinol assay, % relative to the theoretical value ([2]; RT, T0): 98.1%
Chemical stability: rucinol assay, % relative to the theoretical value ([2]; RT, T + 1 M): 100.6%
Chemical stability: rucinol assay, % relative to the theoretical value ([2]; RT, T + 2 M): 101.6%
Max. solubility (% w/w) ([4]; in Arlamol E): 48.2 % w/w
Max. solubility (% w/w) [4, 6]: 47.8 % w/w
Max. solubility (% w/w) ([4]; in Castor oil): 46.4 % w/w
Max. solubility (% w/w) ([4]; in Cremophor EL): 49.7 % w/w
Max. solubility (% w/w) ([4]; in Crodamol DA): 64.1 % w/w
Max. solubility (% w/w) ([4]; in Ethanol): >75.5 % w/w
Max. solubility (% w/w) ([4]; in Glycerol): 63.8 % w/w
Max. solubility (% w/w) ([4]; in Labrasol): 60.9 % w/w
Max. solubility (% w/w) ([4]; in Lauroglycol): 52.8 % w/w
Max. solubility (% w/w) ([4]; in PEG 400): 61.6 % w/w
Max. solubility (% w/w) ([4]; in Propylene glycol): >67.7 % w/w
Solubility of rucinol (in words) ([4]; in all the solvents tested): very good solubility
T + 1 month (% LC) ([5]; in Arlamol E, 40° C.): 94.4 % LC
T + 1 month (% LC) ([5]; in Arlamol E, RT): 95 % LC
T + 1 month (% LC) ([5]; in Cremophor EL, 40° C.): 96.2 % LC
T + 1 month (% LC) ([5]; in Cremophor EL, RT): 96 % LC
T + 1 month (% LC) ([5]; in Ethanol, 40° C.): 105 % LC
T + 1 month (% LC) ([5]; in Ethanol, RT): 100.4 % LC
T + 1 month (% LC) ([5]; in Labrasol, 40° C.): 100.8 % LC
T + 1 month (% LC) ([5]; in Labrasol, RT): 97.8 % LC
T + 1 month (% LC) ([5]; in Miglyol, 40° C.): 99.8 % LC
T + 1 month (% LC) ([5]; in Miglyol, RT): 91.2 % LC
Compound: CCCCc1ccc(O)cc1O [Rucinol, 4-butylresorcinol]
